{"source": "patent US7410797B2", "about": "“Meningeal-derived stem cells” (priority 2002, dated 2008)", "key": {"Cells from the meninges": {"test_system": "Cells from the meninges", "assay": "Neural differentiation of meningeal-derived stem cells in induction media", "type": "cell-based", "details": "for effect on neural differentiation compared with dexamethasone: used as substitutes for dexamethasone", "experimental": "Cells from the meninges that are allowed to become 70% confluent (FIG. 2A) are susceptible to differentiating into nerve under two conditions: antioxidant treatment and steroid hormone treatment. […] This can also be achieved with other antioxidants (i.e., reducing agents), such as butylated hydroxyanisole (BHA) (approximately 200 μM), dithiothreitol (DTT; i.e., Cleland's reagent), as well as dithioerythritol, tributylphosphine, iodoacetamide, tris-phosphine HCl, deoxythymidine-triphosphate trilithium salt, diethylthiatricarbocyanine perchlorate, diethylthiatricarbocyanine iodide and DECROLINE D (available from BASF Corporation; Mount Olive, N.J.; generic name zinc formaldehyde sulfoxylate). These conditions are similar to those used to differentiate bone marrow-derived stem cells and adipose-derived stem cells (D. Woodbury et al., “Adult rat and human bone marrow stromal cells differentiate into neurons,” J. Neuroscience Res., 61(4):364-70 (2000)). The cells that form have a bipolar morphology and express nerve-specific markers.\nThe cells differentiate into what are morphologically distinct subsets of neurons when exposed to small concentrations (e.g, 100 nM) of dexamethasone; a steroid hormone.\nThese may therefore be used as substitutes for dexamethasone. Other steroids that may be used in accordance with this embodiment of the present invention include pregnenolone, aldosterone, testosterone, estradiol and cortisol."}, "Dural cells": {"test_system": "Dural cells", "assay": "Osseous differentiation of dural cells plated on substrate (alkaline phosphatase staining)", "type": "cell-based", "details": "substrate 100 μg/cm^2", "experimental": "Dural cells were forced to adopt a bony phenotype by two separate methods. The first included plating these cells on a MATRIGEL or laminin substrate (100 μg/cm^2)."}}}
{"compound": "CC1=C(/C=C/C(C)=C/C=C/C(C)=C/C=O)C(C)(C)CCC1", "note": "[retinaldehyde]", "values": [{"measurement": "effect on neural differentiation compared with dexamethasone", "setting": "Cells from the meninges", "value": "elicited similar effects to dexamethasone"}]}
{"compound": "CC1=C(/C=C/C(C)=C/C=C/C(C)=C/CO)C(C)(C)CCC1", "note": "[retinol]", "values": [{"measurement": "effect on neural differentiation compared with dexamethasone", "setting": "Cells from the meninges", "value": "elicited similar effects to dexamethasone"}]}
{"compound": "C=C1/C(=C\\C=C2/CCC[C@]3(C)[C@@H]([C@H](C)CCCC(C)(C)O)CC[C@@H]23)C[C@@H](O)C[C@@H]1O", "note": "[1,25-dihydroxy vitamin D3]", "values": [{"measurement": "effect on neural differentiation compared with dexamethasone", "setting": "Cells from the meninges", "value": "elicited similar effects to dexamethasone"}]}
{"compound": "vitamin A", "values": [{"measurement": "effect on neural differentiation compared with dexamethasone", "setting": "Cells from the meninges", "value": "elicited similar effects to dexamethasone"}]}
{"compound": "laminin", "values": [{"measurement": "expression of alkaline phosphatase (differentiated bone marker)", "setting": "Dural cells", "value": "expressed alkaline phosphatase (a differentiated bone marker) within seven days"}]}
{"compound": "OCCS", "note": "[β-mercaptoethanol]", "values": [{"measurement": "differentiation into neural-like cells", "setting": "Cells from the meninges; pre-induction media with 1 mM β-mercaptoethanol for 24 hours, then induction media DMEM, 5 mM β-mercaptoethanol, cells 70% confluent", "value": "differentiate into neural-like cells within six hours"}]}
